For test [1] the following is noted: 30 ppm cyclamate in acidic water; one panelist.
Procedure: (§1) Ingredients were added to water while stirring until solids were visibly dissolved and the sample was poured into a glass bottle and stored at 4° C.
(§2) Taste tests were carried out with one panelist. Bottles were removed from the refrigerator and about 25 ml of beverage was poured into 4 oz-plastic cups. The panelist was given mineral water to rinse their mouth before tasting and between tasting different samples. Unsalted crackers were also given to eat followed by rinsing the mouth with mineral water before tasting the next sample.
(§3) Initially, the panelist was asked to determine the sweetness of the 30 ppm of cyclamate (Table 1).
The panelist was asked to compare the taste profile of (i) a sample of 150 ppm rebaudioside M in acidic water and (ii) a sample of 150 ppm rebaudioside M and 30 ppm cyclamate (below the sweetness recognition threshold concentration) in acidic water. The panelist was asked to compare the sweetness and taste profiles of the two samples.
The conditions of test [2]: 30 ppm cyclamate in acidic water; one panelist. The source holds these as a separate data set.
Procedure: as §1, §2, §3
Test [3] can be described thus: Taste evaluation, sweetness compared to control sucrose acidic water solutions (Example 1). Format: in vivo, human. As to conditions: samples with 320 ppm rebaudioside M in acidic water (citric acid); one panelist; controls 8%, 9%, 10% sucrose. The text has this:
The panelist was instructed to sip, evaluate the sweetness, and then spit the sample in cups provided for that purpose.

Like-named read-outs stand apart in the source and are kept apart here.

As for `O=S(=O)([O-])NC1CCCCC1.[Na+]` [cyclamate, sodium cyclamate], the “sweetness of cyclamate alone” value in test [1] and in test [2] was “not sweet” throughout.

For the compound `C=C1C[C@@]23CC[C@H]4[C@@](C)(CCC[C@@]4(C)C(=O)O[C@@H]4O[C@H](CO)[C@@H](O)[C@H](O[C@@H]5O[C@H](CO)[C@@H](O)[C@H](O)[C@H]5O)[C@H]4O[C@@H]4O[C@H](CO)[C@@H](O)[C@H](O)[C@H]4O)[C@@H]2CC[C@]1(O[C@@H]1O[C@H](CO)[C@@H](O)[C@H](O[C@@H]2O[C@H](CO)[C@@H](O)[C@H](O)[C@H]2O)[C@H]1O[C@@H]1O[C@H](CO)[C@@H](O)[C@H](O)[C@H]1O)C3` [rebaudioside M], the “sweetness compared to control sucrose acidic water solutions” value in test [3] was less than 8%.

The values above are taken from patent US12465065B2, “Method of preparing beverages with enhanced sweetness with cyclamate” (The Coca-Cola Company, priority 2017, dated 2025).
